The results in this text go back to patent publication US11040994B2, “Cobalt complexes, process for preparation and use thereof” (COUNCIL OF SCIENTIFIC AND INDUSTRIAL RESEARCH, priority 2017, dated 2021).

The target of one test is full-length Tau (Homo sapiens, UniProt P10636). As to conditions: for maximum inhibition of full-length Tau aggregation: 0.05 and 0.1 mg/mL complex. Here is the method: Tau was induced to aggregate as described previously with certain modifications. In presence heparin (17,500 Da) in the ratio of 4:1, Tau was polymerized in assembly buffer containing 20 mM BES. pH 7.4, 25 mM NaCl, 1 mM DTT, 0.01% NaN3 and protease inhibitor cocktails. The reaction mixture was incubated at 37° C. and the aggregates formation was monitored by ThS fluorescence, SDS-PAGE and TEM at certain time intervals. The Tau protein was allowed to assemble in presence and absence of compounds in increasing concentrations with constant Tau concentrations of 0.91 mg/mL and 0.28 mg/mL for full-length and four repeat Tau respectively. The changes in the conformation of Tau protein was monitored by CD spectroscopy.
full-length Tau, sequence (P10636 1-441 isoform P10636-8): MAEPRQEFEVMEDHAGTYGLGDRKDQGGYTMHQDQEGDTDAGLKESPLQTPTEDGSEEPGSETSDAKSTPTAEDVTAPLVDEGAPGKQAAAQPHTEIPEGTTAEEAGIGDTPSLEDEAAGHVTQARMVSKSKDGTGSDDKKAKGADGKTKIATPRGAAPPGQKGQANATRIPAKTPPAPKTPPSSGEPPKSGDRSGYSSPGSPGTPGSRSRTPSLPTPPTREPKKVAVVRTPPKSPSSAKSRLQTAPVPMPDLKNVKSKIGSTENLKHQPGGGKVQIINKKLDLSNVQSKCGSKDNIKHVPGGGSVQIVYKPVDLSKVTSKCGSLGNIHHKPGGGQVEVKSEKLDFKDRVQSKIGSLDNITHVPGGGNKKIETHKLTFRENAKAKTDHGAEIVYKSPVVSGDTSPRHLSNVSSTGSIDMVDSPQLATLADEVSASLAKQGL
(§1) Thioflavin S fluorescence assay: 5 μl of reaction mixture was diluted with 8 μM ThS in 50 mM ammonium acetate, pH 7.4 and added to 384 well plates in triplicates. Subsequently blank was also prepared for subtracting background fluorescence. The plate was incubated in the dark before measuring ThS fluorescence for 20 minutes, at an emission wavelength of 521 nm by exciting it at 440 nm in Tecan Infinite 200 PRO multimode microplate reader.

Test [1] addresses full-length Tau aggregates (Homo sapiens, UniProt P10636). As to conditions: highest concentration (range 0.01 mg/mL to 0.1 mg/mL); ThS fluorescence. How it is done: (§2) Disaggregation assay: The potency of the metal complexes for disaggregating the preformed Tau aggregates was also analysed. Soluble Tau was dissolved in assembly buffer and was incubated at 37° C. for PHF assembly. The formation of aggregates was analysed by fluorescence assay and SDS-PAGE. Thus formed aggregates were diluted to 0.91 mg/mL final concentration in 20 mM BES buffer, pH 7.4 and this mixture was incubated with increasing concentration of metal complex as discussed earlier.
as §1

The target in a further test is Tau PHFs (Homo sapiens, UniProt P10636). As to conditions: for Tau disaggregation by TEM: 0 hour; for Tau PHF disaggregation by TEM: prolonged incubation. Here is the method: as §2
Tau PHFs, sequence (P10636 1-441 isoform P10636-8): as above
Transmission Electron Microscopy (TEM): The degree of aggregates formation in presence of the metal complexes was analysed by TEM (Tecnai T-20). The assay mixture was diluted to 1 μM final concentration and spotted on the carbon coated copper grids. This was further stained by 2% uranyl acetate to observe the morphology of aggregates under TEM.

Setting [2] is: heparin as inducer, ThS fluorescence.

full-length Tau aggregates, sequence (P10636 1-441 isoform P10636-8): as above

With “Cobalt(II)(2,6-bis((4-methylpiperazin-1-yl)methyl)pyridine)chloride [L3]”, on full-length Tau (setting [2]), the “maximum inhibition of full-length Tau aggregation” value is reported as “about 97%”. For the same compound, the “disaggregation of full-length Tau aggregates” value in test [1] is given as 77%. Besides, on Tau PHFs, the “Tau disaggregation by TEM” value was “very negligible effect” and the “Tau PHF disaggregation by TEM” value is on record as “destructed into shorter filaments”.

Regarding `[Cl][Co][Cl].c1cc(CN2CCOCC2)nc(CN2CCOCC2)c1` [L2, Cobalt(II)(2,6-bis(morpholinomethyl)pyridine)chloride], the “maximum inhibition of full-length Tau aggregation” value on full-length Tau (setting [2]) is listed as “about 97%”. The “effectiveness in inhibiting aggregation compared between complexes” value at full-length Tau (lower concentration) was “more effective in comparison with L1 and L3”. Besides, the “disaggregation of full-length Tau aggregates” value in test [1] is on record as 72%. At Tau PHFs, the “Tau disaggregation by TEM” value was “very negligible effect” and the “Tau PHF disaggregation by TEM” value is on record as “destructed into shorter filaments”.

For the compound “Cobalt(II)(2,6-bis(piperazin-1-ylmethyl)pyridine)chloride [L1]”, on full-length Tau (highest concentration of 0.1 mg/mL, heparin as inducer, ThS fluorescence), the “inhibition rate of full-length Tau aggregation” value is given as 97%. For the same compound, the “disaggregation of full-length Tau aggregates” value in test [1] was 74%. In addition, at Tau PHFs, the “Tau disaggregation by TEM” value is given as “very negligible effect” and the “Tau PHF disaggregation by TEM” value is “destructed into shorter filaments”.
